Measured values taken from patent US20060035212A1, “Molecules inhibiting hepatitis c virus protein synthesis and method for screening same” (Universte Joseph Fourier, priority 2002, published 2006).
“Also recorded” adds a separate entry of the source. Like-named read-outs stand apart in the source and are kept apart here.

Tests used:
[1] = test system: HCV IRES-controlled Firefly luciferase synthesis in HeLa cells; experiment: Bicistronic construct in HeLa cells: IRES-dependent (cap-independent) translation, Firefly luciferase; assay type: cell-based; details: for IRES specificity of translation inhibition (in words): IRES-dependent versus cap-dependent translation, HeLa cells; for inhibition at 2000 µM: 2 mM
Experimental: (§1) Bicistronic constructs consisting of a first cistron corresponding to the Renilla luciferase gene, followed by the IRES sequence, followed by a second cistron corresponding to the Firefly luciferase gene (pRluc-IRES-Fluc) are prepared in the following way. A plasmid pRL-SV40 (Promega) is linearized with Xba I and dephosphorylated. In parallel, the IRES is amplified with the Firefly luciferase gene by PCR, in the presence of complementary oligonucleotides containing the Xba I sites. The PCR products are then subcloned in plasmid pTrcHis2-TOPO (Invitrogen) in order to control the digestion. The ligation of the insert containing the IRES with the Firefly luciferase gene and the linearized vector pRL-SV40 is carried out using T4 DNA ligase (Biolabs).
(§2) 10^7 HeLa cells suspended in serum-free DMEM are transfected with 1 to 2.5 μg of plasmid pRluc-IRES-Fluc by electroporation at […] for 30 milliseconds using a Gene Pulser (BioRad). […] The Renilla luciferase activity (cap-dependent translation) and that of the Firefly luciferase (cap-independent=viral translation) in the cell lysates is measured and compared by means of the Dual-luciferase assay (Promega) and of a Lumat LB9507 luminometer (Berthold).

[2] = molecular target: T1, p116 RRM/consensus sequence of region II of the HCV IRES complex (Homo sapiens, UniProt P55884); experiment: In vitro screening assay: inhibition of binding of the RRM of p116 to the consensus sequence of region II of the IRES (nitrocellulose retention); set-up: species or system HCV (IRES RNA); eIF3 p116 RRM cDNA from HeLa cells; details: for inhibition of the formation of the RNA-protein complex (in words): 4 different concentrations tested
T1 construct: His6 (C); made in house; host or cells: E. coli BL21lysS
Experimental: (§3) Radiolabeled RNA fragments are obtained by in vitro transcription of the abovementioned templates in the presence of [α-32P]UTP. The RNA fragments are purified in a 6% acrylamide-urea gel and precipitated. The RNA pellets are taken up in 25 mM Tris-HCl, pH 7.4. In order to allow renaturation, the RNA was incubated at 65° C. in the abovementioned buffer for 5-7 min and then slowly cooled to ambient temperature. The renatured RNAs were incubated with increasing concentrations of protein in the same 25 mM Tris-HCl buffer, pH 7.4, at ambient temperature for 5 min.
The mixture of proteins and of RNA is then deposited onto a nitrocellulose membrane washed beforehand with the same buffer. The radioactivity of the filter containing the RNA-protein complexes was measured using a Trilux MicroBeta radioactivity counter (PerkinElmer). […]
The screening assay is carried out as follows. The RRM of p116 and the consensus sequence of region II are incubated in the presence of various aminoglycosides. The RNA mixture is then deposited onto a nitrocellulose membrane under the same conditions as in example 2.

[3] = test system: cap-controlled Renilla luciferase synthesis in HeLa cells; experiment: Bicistronic construct in HeLa cells: cap-dependent translation, Renilla luciferase; assay type: cell-based; details: for cap-dependent synthesis, % of control: 2.5 μg of pDNA (FIG. 9C)
Experimental: as §1, §2

entire IRES of HCV = experiment: Affinity of the RRM of p116 for the whole IRES by retention on nitrocellulose; assay type: binding; details: 25 mM Tris-HCl pH 7.4, read-out: apparent Kd
Experimental: as §3
The mixture of proteins and of RNA is then deposited onto a nitrocellulose membrane washed beforehand with the same buffer. The radioactivity of the filter containing the RNA-protein complexes was measured using a Trilux MicroBeta radioactivity counter (PerkinElmer).

[4] = concentrations of 1, 2 and 5 mM

How did the “IRES specificity of translation inhibition (in words)” value [1] turn out when CN[C@@H]1[C@@H](O)[C@@H](O[C@@H]2[C@@H](O)[C@H](O[C@H]3O[C@H]([C@@H](C)O)[C@@H](O)[C@H](O)[C@H]3N)[C@@H](N)C[C@H]2N)OC[C@]1(C)O [G418] was run?
The value was “inhibit both the cap-dependent and IRES-dependent translation in an IRES-nonspecific manner”.

NC[C@H]1O[C@H](O[C@H]2[C@H](O)[C@@H](O[C@H]3O[C@H](CO)[C@@H](O)[C@H](N)[C@H]3O)[C@H](N)C[C@@H]2N)[C@H](O)[C@@H](O)[C@@H]1O [kanamycin A] was tested. Which “inhibition of the p116 RRM/II complex” value ([2]; 20 μM) did it give?
The value was 0%.

And the “inhibition of the p116 RRM/II complex” value ([2]; 40 μM)?
Its value is 0%.

And the “inhibition of the p116 RRM/II complex” value ([2]; 80 μM)?
Its value is 0%.

NC[C@H]1O[C@H](O[C@H]2[C@H](O)[C@@H](O[C@H]3O[C@H](CO)[C@@H](O)[C@H](N)[C@H]3O)[C@H](N)C[C@@H]2N)[C@H](N)[C@@H](O)[C@@H]1O [kanamycin B] was tested. Which “inhibition of the p116 RRM/II complex” value ([2]; 20 μM) did it give?
Its value is 22%.

For NC[C@@H]1O[C@H](O[C@H]2[C@@H](O)[C@H](O[C@@H]3[C@@H](O)[C@H](N)C[C@H](N)[C@H]3O[C@H]3O[C@H](CO)[C@@H](O)[C@H](O)[C@H]3N)O[C@@H]2CO)[C@H](N)[C@@H](O)[C@@H]1O [paramomycin], which “IRES specificity of translation inhibition (in words)” value [1] is on record?
Its value is “moderately IRES-specific”.

And the “inhibition of IRES-dependent translation” value [1, 4]?
The value was 37%.

What about the “inhibition of cap-dependent translation” value [3, 4] of the same molecule?
Its value is 6.3%.

Which results are given for [H]/N=C(/N)N[C@H]1[C@H](O)[C@@H](O)[C@H](O[C@@H]2O[C@@H](C)[C@](O)(C=O)[C@H]2O[C@@H]2O[C@@H](CO)[C@H](O)[C@@H](O)[C@@H]2NC)[C@@H](N/C(N)=N\[H])[C@@H]1O [streptomycin]?
inhibition at 20 µM ([2]; 20 μM): 25%; inhibition at 40 µM ([2]; 40 μM): 36%; inhibition of the formation of the RNA-protein complex (in words) [2]: inhibit the formation of the RNA-protein complex at all the concentrations tested; IRES specificity of translation inhibition (in words) [1]: inhibits the translation of the two cistrons in an IRES-nonspecific manner

NC[C@H]1O[C@H](O[C@H]2[C@H](O)[C@@H](O[C@H]3O[C@H](CO)[C@@H](O)[C@H](N)[C@H]3O)[C@H](N)C[C@@H]2N)[C@H](N)C[C@@H]1O [tobramycin] was tested. Which inhibition at 20 µM ([2]; 20 μM) did it give?
The inhibition at 20 µM was 43%.

And the inhibition at 40 µM ([2]; 40 μM)?
Its inhibition at 40 µM is 54%.

What about the “inhibition of the formation of the RNA-protein complex (in words)” value [2] of the same molecule?
The value was “inhibit the formation of the RNA-protein complex at all the concentrations tested; also recorded: capable of dissociating the p116/II complex in vitro, at all the concentrations tested”.

And the inhibition at 1000 µM ([1]; Hepatitis C virus, HeLa, read-out: inhibition of the synthesis of the Firefly luciferase controlled by the IRES)?
Its inhibition at 1000 µM is 90.4%.

And the inhibition at 2000 µM ([1]; Hepatitis C virus, HeLa, 1 μg of plasmid DNA (FIG. 9B), read-out: inhibition of IRES-luciferase synthesis)?
Its inhibition at 2000 µM is 83%.

And the inhibition at 2000 µM ([1]; Hepatitis C virus, HeLa, 2.5 μg of pDNA (FIG. 9C), read-out: inhibition of the IRES-dependent translation)?
Its inhibition at 2000 µM is 36.5%.

And the inhibition at 5000 µM ([1]; Hepatitis C virus, HeLa, 5 mM, 2.5 μg of pDNA (FIG. 9C))?
The inhibition at 5000 µM was 69%.

What about the “IRES specificity of translation inhibition (in words)” value [1] of the same molecule?
Its value is “the most specific inhibitor of the IRES-controlled translation”.

What about the “synthesis of the Renilla luciferase (cap-controlled), % of the control” value ([3]; 1 mM, 1 μg of plasmid DNA (FIG. 9B)) of the same molecule?
The value was 168 % of the control.

And the “cap-dependent synthesis, % of control” value ([3]; 2 mM)?
The value was 268 % of control.

What about the “cap-dependent synthesis, % of control” value ([3]; 5 mM) of the same molecule?
The value was 134 % of control.

What about the inhibition at 2000 µM ([3]; Renilla, HeLa, 2 mM, 1 μg of plasmid DNA (FIG. 9B)) of the same molecule?
The inhibition at 2000 µM was 27%.

B1: RRMp116: recombinant RNA recognition motif of the eIF3 p116 subunit (SEQ ID 5), C-terminal His6-Tag (protein)
chain: MDRPQEADGIDSVIVVDNVPQVGPDRLEKLKNVIHKIFSKFGKITNDFYPEEDGKTKGYIFLEYASPAHAVDAVKNADGYKLDKQHTFRVNLFTDFDKYMTISDEW
modifications: C-terminal His6 tag; p116 175..279 corresponds to a portion (RRM) of eIF3 p116 subunit
How did the Kd (entire IRES of HCV) turn out when B1 was run?
The Kd was 800 nM.
